Data taken from US20050014706A1, “Method of treating tuberculosis” (priority 2003, published 2005).
≈ marks a conversion by molar mass, not a printed value. Where two headings read alike, the source gives them in different places.

Assays:
VERO cells [1] = tested on: VERO cells
VERO cells [2] = test: Cytotoxicity against VERO cells (MTS, 72 hours); settings: for IC50: read-out: Vero IC50 (toxicity); for toxicity / cytotoxicity in words: in vitro study
[3] = tested on: J774.1 macrophage cell line; test: Cytotoxicity against J774.1 macrophage cell line; assay type: cell-based, murine
M. tuberculosis H37Rv [4] = test: MIC vs. M. tuberculosis H37Rv, microplate Alamar Blue assay (MABA); assay type: cell-based; settings: for MIC / activity vs. M. tuberculosis in words: in vitro; for enhancement in potency of macrolide over counterpart ketolide: vs. telithromycin, RU004, RU56006 respectively
[5] = Overt toxicity in mice, escalating 5-day cycles; assay type: in vivo, Balb/C mice; settings: once daily 5-day cycles, sequentially 200, 300, 400, 500 mg/kg
Method: Prior to assessing in vivo efficacy, RU66252 and RU69874 were administered to pairs of female Balb/C mice once daily for 5-day cycles, and observed for overt signs of toxicity (e.g., weight loss, ruffled fur, and huddling), after which the mice were rested for 1 or 2 days. Then the dosage was increased for another 5-day cycle. Overall, the same mice received sequentially for 5 days: 200, 300, 400, and 500 mg/kg.

M. tuberculosis Erdman = assay type: in vivo, BALB/c mice; settings: for activity against M. tuberculosis in the acute phase of infection: 100 and 200 mg/kg qd (RU60887 100 mg/kg only)
tubercle bacillus [6] = settings: literature; cited from earlier work
tubercle bacillus [7] = settings: literature (Luna-Herrera 1995; Truffot-Pernot 1995); cited from earlier work
M. tuberculosis H37Rv [8] = settings: positive quality control, MABA; cited from earlier work
M. tuberculosis = test: Activity against M. tuberculosis in mice (follow-up, dose response); assay type: in vivo
[9] = Mus musculus, J774.1, Table 1a, J774 cells, read-out: J774 IC50 (toxicity)
[10] = Mycobacterium tuberculosis, H37RV, Table 1a, 11,12-carbamate derivatives, read-out: Anti-TB Activity MIC
[11] = Mycobacterium tuberculosis, H37RV, read-out: minimum inhibitory concentration (MIC) against M. tuberculosis
[12] = Table 2a, 11,12-diols, read-out: Anti-TB Activity MIC
[13] = Table 1a, 11,12-carbamate derivatives, read-out: Anti-TB Activity MIC

| Compound | IC50 (VERO cells [2]; Chlorocebus sabaeus, Vero) | IC50 [3, 9] | MIC (M. tuberculosis H37Rv [4]; [10]) | MIC (M. tuberculosis H37Rv [4]; [11]) | MIC / activity vs. M. tuberculosis in words (M. tuberculosis H37Rv [4]) | toxicity / cytotoxicity in words (VERO cells [2]) | enhancement in potency of macrolide over counterpart ketolide (M. tuberculosis H37Rv [4]) | activity against M. tuberculosis in the acute phase of infection (M. tuberculosis Erdman) | further results |
| --- | --- | --- | --- | --- | --- | --- | --- | --- | --- |
| CC[C@H]1OC(=O)[C@@](C)(F)C(=O)[C@H](C)[C@@H](O[C@@H]2O[C@H](C)C[C@H](N(C)C)[C@H]2O)[C@](C)(OCC#Cc2cc(-c3cnc4ccccc4c3)no2)C[C@@H](C)C(=O)[C@H](C)[C@H]2NC(=O)O[C@@]21C [Compound A323348] | 24.3 µM | 15.3 µM | 0.38 µM (≈ 0.323 µg/mL) | 0.38 µM (≈ 0.323 µg/mL) | very low | – | – | – | toxicity / cytotoxicity in words (VERO cells [1]): comparable to clarithromycin |
| CC[C@H]1OC(=O)[C@H](C)[C@@H](O[C@H]2C[C@@](C)(OC)[C@@H](O)[C@H](C)O2)[C@H](C)[C@@H](O[C@@H]2O[C@H](C)C[C@H](N(C)C)[C@H]2O)[C@](C)(OC)C[C@@H](C)C(=O)[C@H](C)[C@H]2N(CCCCn3cnc(-c4cccnc4)c3)C(=O)O[C@]12C [RU69874] | 27 µM | 58.6 µM | 0.38 µM (≈ 0.369 µg/mL) | 0.38 µM (≈ 0.369 µg/mL) | very low | comparable to clarithromycin | 126 fold | less activity | selectivity index (SI) ([3]; J774 cells): 154; IC50 ([3]; Mus musculus, J774.1, based on J774 cells, read-out: toxicity): 59 µM; overt signs of toxicity (weight loss, ruffled fur, huddling) [5]: No signs of overt toxicity |
| CC[C@H]1OC(=O)[C@H](C)C(=O)[C@H](C)[C@@H](O[C@@H]2O[C@H](C)C[C@H](N(C)C)[C@H]2O)[C@](C)(OC)C[C@@H](C)C(=NOC2CCCN(C/C=C/c3ccc(-c4ccccc4)cc3)C2)[C@H](C)[C@@H](O)[C@]1(C)O (stereo partly shown) [RU61804] | – | – | – | – | – | – | – | – | IC50 (VERO cells [2]; Table 2a, Vero cells): 9.12 µM; IC50 ([3]; Table 2a, J774 cells, read-out: J774 IC50 (toxicity)): 3.9 µM; MIC (M. tuberculosis H37Rv [4]; [12]): 0.5 µM (≈ 0.439 µg/mL) |
| CC[C@H]1OC(=O)[C@H](C)[C@@H](O[C@H]2CC(C)(OC)[C@@H](O)[C@H](C)O2)[C@H](C)[C@@H](O[C@@H]2O[C@H](C)C[C@H](N(C)C)[C@H]2O)[C@](C)(OC)C[C@@H](C)C(=O)[C@H](C)[C@H]2N(CCCCc3ccnc4ccccc34)C(=O)O[C@]12C (stereo partly shown) [RU66080] | – | – | – | – | – | – | – | – | IC50 (VERO cells [2]; Table 1a, Vero cells): 8.1 µM; IC50 ([3]; Table 1a, J774 cells, read-out: J774 IC50 (toxicity)): 4.95 µM; MIC (M. tuberculosis H37Rv [4]; [13]): 0.44 µM (≈ 0.421 µg/mL) |
| CC[C@H]1OC(=O)[C@H](C)[C@@H](O[C@H]2C[C@@](C)(OC)[C@@H](O)[C@H](C)O2)[C@H](C)[C@@H](O[C@@H]2O[C@H](C)C[C@H](N(C)C)[C@H]2O)[C@](C)(OC)C[C@@H](C)C(=O)[C@H](C)[C@@H](O)[C@]1(C)O [Clarithromycin, reference compound] | – | – | – | – | – | – | 16 fold | – | MIC against the tubercle bacillus (tubercle bacillus [6]): 4 to 64 µg/mL; IC50 (VERO cells [2]; Table 2a, Vero cells): 41 µM; MIC (M. tuberculosis H37Rv [4]; [12]): 8 µM (≈ 5.98 µg/mL); activity in mouse models (tubercle bacillus [7]): marginal and nil |
| NNC(=O)c1ccncc1 [Isoniazid] | – | – | – | – | – | – | – | – | expected MIC range of quality control compound (M. tuberculosis H37Rv [8]): 0.025 to 0.1 µg/mL |
| CCCCCCCCCCN1CCCC(O/N=C2\[C@H](C)C[C@@](C)(OC)[C@H](O[C@@H]3O[C@H](C)C[C@H](N(C)C)[C@H]3O)[C@@H](C)C(=O)[C@@H](C)C(=O)O[C@H](CC)[C@@](C)(O)[C@H](O)[C@H]2C)C1 (stereo partly shown) [RU60887] | 27.6 µM | – | – | 0.12 µM (≈ 0.0991 µg/mL) | very low | comparable to clarithromycin | – | less activity | IC50 ([3]; Mus musculus, J774.1, Table 2a, J774 cells, read-out: J774 IC50 (toxicity)): 4.7 µM; MIC (M. tuberculosis H37Rv [4]; Mycobacterium tuberculosis, H37RV, Table 2a, 11,12-diols, read-out: Anti-TB Activity MIC): 0.125 µM (≈ 0.103 µg/mL) |
| CO[C@H]1/C=C/O[C@@]2(C)Oc3c(C)c(O)c4c(O)c(c(/C=N/N5CCN(C)CC5)c(O)c4c3C2=O)NC(=O)/C(C)=C\C=C\[C@H](C)[C@H](O)[C@@H](C)[C@@H](O)[C@@H](C)[C@H](OC(C)=O)[C@@H]1C [RMP, Rifampin, reference compound] | 46.7 µM | 32.7 µM | 0.076 µM (≈ 0.0625 µg/mL) | – | – | – | – | – | – |
| CC[C@H]1OC(=O)[C@H](C)C(OC2CC(C)(OC)[C@@H](O)[C@H](C)O2)[C@H](C)[C@@H](O[C@@H]2O[C@H](C)C[C@H](N(C)C)[C@H]2O)[C@](C)(OC)C[C@@H](C)C(=O)[C@H](C)[C@H]2N(NCCCc3ccnc4ccccc34)C(=O)O[C@]12C (stereo partly shown) [RU66252] | – | – | – | – | very low | comparable to clarithromycin | 16 fold | dose-dependent activity | M. tuberculosis inhibition in mice (M. tuberculosis; 150 mg/kg and 200 mg/kg): significant; dose response in mice (M. tuberculosis; between 50 and 200 mg/kg): shows a dose response; activity against M. tuberculosis in mice (M. tuberculosis; mice): active; MIC (M. tuberculosis H37Rv [4]; [13]): 0.25 µM (≈ 0.239 µg/mL); MIC (M. tuberculosis H37Rv [4]; Table 3, parallel-synthesis carbazate library products): 9 µM (≈ 8.61 µg/mL); MIC vs. M. tuberculosis (M. tuberculosis H37Rv [4]; follow-up assays): about 9 μM; MIC (M. tuberculosis H37Rv [4]; read-out: minimum inhibitory concentration (MIC) against M. tuberculosis): 0.25 µM (≈ 0.239 µg/mL); overt signs of toxicity (weight loss, ruffled fur, huddling) [5]: No signs of overt toxicity; colonies from treated mouse lung homogenates (M. tuberculosis Erdman; 10^−2 dilution plates): no colonies |
